Measurements: patent US8367659B2, “Oxazinyl isoflavonoid compounds, medicaments and use” (Marshall Edwards, Inc., priority 2007, dated 2013)
Where two headings read alike, the source gives them in different places.

What was measured:
[1] = tested on: TNFα synthesis in RAW 264.7 murine macrophages; test: LPS-induced TNFα synthesis in RAW 264.7 murine macrophages; type: cell-based, mouse; settings: 10 μM; relative to vehicle alone; FIG. 5
Procedure: (§1) The mouse macrophage cell line RAW 264.7 was cultured in DMEM supplemented with foetal calf serum (FCS), […] glutamine and 50 U/ml penicillin/streptomycin. Cells were treated with either test compound (in 0.025% DMSO) or vehicle alone, and added one hour before 50 ng/ml LPS. After incubation for 24 h, culture media was collected for PGE2 or TXB2 measurement by ELISA (Cayman Chemical), and TNFα measurement using an ELISA (Becton Dickinson). Test compounds were examined a concentration of 10 μM. […] Consequently, to assess the effect of test compounds on various analytes, cell viability was taken into consideration with the use of the formula: Actual effect of test compound=measured effect−(effect on cell viability×measured effect)

[2] = tested on: NO synthesis in RAW 264.7 murine macrophages; test: LPS-induced NO synthesis in RAW 264.7 murine macrophages (Griess); type: cell-based, mouse; settings: 10 μM; relative to vehicle alone; FIG. 6
Procedure: as §1, with “Dickinson). Nitrite concentration is a quantitative indicator of NO production and was determined by the Griess Reaction. Briefly, 100 μL of Griess reagent was added to 50 μL of each supernatant in duplicate. The absorbance at 550 nm was measured (Molecular Devices, SpectraMax 250 microplate spectrophotometer, CA, USA), and nitrite concentrations were determined against a standard curve of sodium nitrite. The percentage nitrite inhibition was calculated as: [100−(nitrite concentration of sample/nitrite of vehicle control LPS cells)×100]. Results” for “Dickinson).”

[3] = Free radical scavenging with DPPH; settings: for EC50: DPPH, read-out: Free radical scavenging ability EC50
Procedure: The antioxidant (free radical trapping) activity of test compounds was assessed using the stable free radical compound 2,2-diphenyl-1-picrylhydrazyl (DPPH). A stock solution of DPPH was prepared at a concentration of […] in ethanol and mixed for 10 minutes prior to use. Test compounds at a concentration of 100 μM were reacted with DPPH for, 20 minutes, alter which time the absorbance at 517 nm was determined. Initial screening of was done at 100 μM. The change in absorbance at 517 nm was compared to a reagent blank (DPPH with ethanol alone). […] The IC50 values were estimated as the concentration of test compound that caused a 0.6 change in absorbance (with 1.2 absorbance units representing total scavenging of the DPPH radical).
The antioxidant (free radical trapping) activity of test compounds was assessed using the stable free radical compound 2,2-diphenyl-1-picrylhydrazyl (DPPH). A stock solution of DPPH was prepared […] in ethanol and mixed for 10 minutes prior to use. Initial screening of test compound at a concentration of 100 μM was reacted with DPPH for 20 minutes, after which time the absorbance at 517 nm was determined. The change in absorbance was compared to a reagent blank (DPPH with ethanol alone). […] The IC50 value was estimated as the concentration of test compound that causes a 0.6 change in absorbance (with 1.2 absorbance units representing total scavenging of the DPPH radical).

[4] = target: T1, GAL4-PPARγ fusion protein (Homo sapiens, UniProt P37231); test: PPARγ activity in transfected HEK293 cells (beta-lactamase reporter); type: cell-based; settings: FIG. 13: 1 μM
T1 construct: host or cells: HEK293 (human embryonic kidney), stably transfected
Procedure: Human HEK293 cells, stably transfected with the PPARγ ligand binding domain fused with the DNA binding domain of the GAL4 protein (GAL4-PPARγ fusion protein), produce beta-lactamase when incubated with PPARγ ligands. Transfected human kidney embryonic cells (Invitrogen Inc., Carlsbad, Calif.) were seeded onto matrigel in 96-well plates and allowed to attach overnight. The following day, vehicle alone (DMSO) or test compound at 1, 5 and 10 μM was added at varying concentrations to cells and incubated for 16-18 hours. Cells were then loaded with a FRET-based fluorescent substrate to assess beta-lactamase activity. Cells were protected from light, and incubated at room temperature for 2 h. Plates were read on a fluorescence plate reader with an excitation wavelength of 409 nm and emission wavelengths of 460 nm and 530 nm. Results were expressed as a ratio of these two wavelengths after the background (cell-free control wells) had been subtracted. PPARγ activity was thus determined by measuring beta-lactamase activity as assessed by a fluorescent product to substrate ratio.

CP70 = test: Anti-cancer activity, CP70 ovarian cancer cells (MTT); type: cell-based; settings: 120 h, 5 days
HPAC = test: Anti-cancer activity, HPAC pancreatic cancer cells (MTT); type: cell-based; settings: Homo sapiens, 120 h, 5 days
MM200 = test: Anti-cancer activity, MM200 melanoma cells (MTT); type: cell-based; settings: 120 h; 5 days, MTT
cancer cell lines = test: Anti-cancer activity, cancer cell lines tested as a group (MTT); type: cell-based; settings: CP70, HPAC and MM200
[5] = tested on: NFκB-promoter activity in TNFa-stimulated THP-1 monocyte/macrophages; test: NFκB promoter activity in TNFα-stimulated THP-1 cells (beta-lactamase reporter); type: cell-based, human; settings: 30 μM; FIG. 19
Procedure: The assay utilizes a genetically modified THP-1 cell line and GeneBLAzer® beta-lactamase technology (Invitrogen Corp). The human THP-1 monocyte/macrophages contain a stably-transfected beta-lactamase reporter gene under control of the NFκB response element They respond to stimulation with TNF-a, which leads to activation of the NFκB signaling pathway. Co-incubation of cells with TNF-a and test material allows quantitative determination of the ability of test material to inhibit TNFa-stimulated beta-lactamase production. Inflammatory index is calculated as the ratio of beta-lactamase product to beta-lactamase substrate. In brief, genetically modified THP-1 cells were seeded into wells of a 96-well plate (50×10^3 cells/well) in the presence of RPMI 1640 medium (70 μl). TNFα was added to each well (10 μl) to give a final concentration of 7.5 ng/ml. Dialyzed bovine serum was added (10 μl). Compounds dissolved in DMSO (10 μL) were then added (5 wells for each compound). Each plate contained a no-cell control (4 wells), a no-serum control (4 wells) and two serum controls. Plates were incubated for 5 h at 37° C. to allow for NFκB-stimulated beta-lactamase production. LiveBLAzer™ FRET B/G Substrate (CCF4-AM) substrate was then added to assay. CCF4-AM is a Forster resonance energy transfer (FRET) based substrate for beta-lactamase developed by Invitrogen Corp. Once CCFA-AM enters a cell, it is converted to negatively charged CCF4 by endogenous esterases. Excitation of this substrate at 409 nm leads to efficient FRET between the coumarin and fluorescein moieties, resulting in a green fluorescence detectable at 530 nm. The presence of beta-lactamase leads to cleavage of CCF4 and results in a loss of FRET, resulting in a robust blue fluorescent signal detectable at 460 nm. Thus, activity of beta-lactamase (a marker of NFκB-promoter activity) is measured as a product to substrate ratio (blue/green fluorescence ratio: 460 nm/530 nm). The determination of inflammatory index has a within-plate CV of 2.1% and a between-plate CV of 8.9% This comparative study was conducted according to the assay method set out in the example at Section 2.4 above.

red blood cells (RBC) = test: Peroxyl radical (AAPH)-induced red blood cell lysis; type: cell-based
Procedure: Freshly collected heparinised venous blood (10 ml, on ice) was aliquotted into 1.8 ml sterile Eppendorf tubes and centrifuged for 10 minutes at 2600 rpm at 4° C. Plasma and buffy coat layers were removed (approximately […]) and packed red blood cells (RBC) were then washed by the addition of […], ice cold PBS. This washing procedure was repeated twice. Packed RBC were resuspended by the addition of 900 ml of ice-cold, sterile PBS (and termed RBC stock). RBC stocks were stored at 4° C. for a maximum of three days. All working suspensions of RBC were prepared fresh daily by diluting […] of RBC stock into 10 ml of ice-cold, sterile PBS and […] added to each well.
Stocks of AAPH were freshly prepared for individual experiments as follows. AAPH (1.22 gm) was dissolved in 7.5 ml of PBS to yield a 4× stock at 600 mM and […] aliquots (final concentration of 150 mM) were then added to each well to initiate the lysis assay. Stock solutions of test compounds (40 mM in 100% DMSO) were diluted in sterile PBS to yield final concentrations of […] per well. Appropriate controls were included in each experiment. All compound dilutions were adjusted to give final DMSO concentrations in each well of 0.25%. Peroxy-induced RBC lysis assays were performed in 96-flat bottom well microtitre plates with a total volume of […] per well. Turbidity of RBC suspensions were monitored using a Tecan microplate reader at 690 nm (37° C.) with gentle vortexing. Assays were performed in quadruplicate and readings were taken every 5 minutes over 5 hours. RBC lysis curves were constructed by plotting absorbance (mean of 4 readings) against time. Time to half-lysis was calculated by taking the highest absorbance reading (no lysis) and the lowest absorbance reading (maximum lysis). The sum of these two readings divided by two gave the absorbance at half-lysis. Simple regression analysis was used to calculate the time at which half-lysis absorbance occurred.
This comparative study was conducted according to the assay method set out in the example at Section 3.3 above.

[6] = 20 minutes, absorbance 517 nm, Table 4

T1 sequence (P37231 238-503 limits assumed): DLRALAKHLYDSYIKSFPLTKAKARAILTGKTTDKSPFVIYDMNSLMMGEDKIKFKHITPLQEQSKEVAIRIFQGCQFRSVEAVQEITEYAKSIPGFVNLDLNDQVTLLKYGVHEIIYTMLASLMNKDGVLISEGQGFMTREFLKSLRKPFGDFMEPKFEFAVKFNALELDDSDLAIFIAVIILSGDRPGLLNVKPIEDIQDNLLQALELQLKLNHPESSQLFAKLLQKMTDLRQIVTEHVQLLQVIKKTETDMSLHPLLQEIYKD
T1 sequence (P04386 1-147 partner limits assumed): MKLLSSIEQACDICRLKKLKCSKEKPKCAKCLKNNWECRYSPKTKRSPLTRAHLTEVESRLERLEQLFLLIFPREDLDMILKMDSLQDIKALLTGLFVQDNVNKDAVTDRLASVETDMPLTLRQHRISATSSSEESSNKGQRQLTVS

| EC50 [3, 6] | PPARγ activation, increase in beta-lactamase activity over media only control [4] | IC50 (CP70) | IC50 (HPAC) | IC50 (MM200) | EC50 ([3]; comparative, Table 13) | Compound | mean change of LPS-induced TNFα synthesis [1] | mean change of LPS-induced NO synthesis [2] | activity against CP70, HPAC and MM200 cell lines (cancer cell lines) | NFκB inhibition [5] | free radical scavenging / antioxidant activity in DPPH screen ([3]; 100 μM, ΔAbs>0.3 criterion) | antioxidant activity, AAPH-induced time to half-lysis of red blood cells (red blood cells (RBC)) | Time taken to reach half-lysis, time (red blood cells (RBC); test compounds at 10 μM, vehicle 40.0, comparative, Table 14) |
| --- | --- | --- | --- | --- | --- | --- | --- | --- | --- | --- | --- | --- | --- |
| 22.5 µM | – | – | – | – | – | CN1COc2cc3c(cc2C1)C=C(c1ccc(O)cc1)CO3 [Compound 4, 4-(3-methyl-2,3,4,8-tetrahydrochromeno[6,7-e][1,3]oxazin-7-yl)phenol] | greatest inhibition | greatest inhibition | – | – | – | – | – |
| 21 µM | PPARγ agonist activity | – | – | – | – | Cc1cccc(N2COc3cc4c(cc3C2)C=C(c2ccc(O)cc2)CO4)c1 [Compound 22, 4-(3-m-Tolyl-2,3,4,8-tetrahydrochromeno[6,7-e][1,3]oxazin-7-yl)phenol] | greatest inhibition | greatest inhibition | – | – | – | – | – |
| 24 µM | PPARγ agonist activity | 5.08 ± 1.5 µM | 9.64 ± 3.6 µM | 11.3 ± 0.2 µM | – | COc1ccc(CN2COc3cc4c(cc3C2)C=C(c2ccc(O)cc2)CO4)cc1 [Compound 6, 4-(3-(4-Methoxybenzyl)-2,3,4,8-tetrahydrochromeno[6,7-e][1,3]oxazin-7-yl)phenol] | greatest inhibition | – | active | – | – | – | – |
| – | – | – | – | – | > 100 µM | O=c1c(-c2ccc(O)cc2)coc2cc(O)cc(O)c12 [genistein, reference compound] | – | – | – | inhibited NFκB | no antioxidant activity | delaying the AAPH-induced time to half-lysis | 93.8 min |
